Patent publication US20230107216A1, “PANTETHEINE DERIVATIVES AND USES THEREOF” (Comet Therapeutics, Inc., priority 2018, published 2023)

Assays:
[1] = system: Subnormal activation of pyruvate dehydrogenase complex (PDH) primary fibroblasts GM01503; experiment: NADP+/NADPH (NADP/NADPH-Glo), PDH fibroblasts GM01503; type: cell-based; conditions: Homo sapiens, Fibroblast, PDH GM01503 P10, assay condition A (10 mM glucose, 2 mM L-glutamine, 1 mM pyruvate, 10% FBS), 24h, read-out: Increase in Total NADP+ + NADPH
Method: Primary adherent fibroblasts were cultured in minimum essential medium (MEM) (Gibco, 25030081) supplemented with 2 mM L-Glutamine (Gibco, 25030081), 15% fetal bovine serum (FBS) (Gibco, 26400044) and 1% penicillin/streptomycin (Gibco, 5140122) at 37° C. and 5% CO2. Cells were collected for either passaging or experiment at ˜70-80% confluence. Cells were obtained by trypsinization and seeded in cell culture microplates either white plate (Thermo Fisher Scientific, 152028) for luminescent measurement or black plate (Thermo Fisher Scientific, 165305) for fluorescent based read out for different assays listed below. Cells were obtained by trypsinization and […] were seeded and allowed to adhere for 16-18 hours to have confluency around 70-80% in the cell well with culture media. After 24 hours prior to measurements (37° C., 5% CO2) media was changed to Dulbecco's Modified Eagle Medium (DMEM, Agilent Seahorse cat #103575-100) with the appropriate supplements as stated below.
Primary fibroblasts assayed were Propionic Acidemia (PA) (GM03590 Coriell Institute for Medical Research, Tsi 6337 Trans-Hit Bio), Methylmalonic Acidemia (MMA) (Tsi 5224 Trans-Hit Bio), Subnormal activation of pyruvate dehydrogenase complex (PDH) (GM01503 Coriell Institute for Medical Research), Very long-chain acyl-CoA dehydrogenase (VLCAD) (GM17475), Leigh Syndrome (LS) (GM03672, GM13411 Coriell Institute for Medical Research), Pyruvate Carboxylase Deficiency (PC) (GM00444 Coriell Institute for Medical Research). 10 μM of Compounds were added for 2 hours in PA, MMA lines and for 24h for the other fibroblast lines.
Assay was performed according to manufacturer instructions (NADP+/NADPH-Glo Assay Promega, G9082). Assay required a plate for total measurement of NADP+/NADPH and a plate for individual measurement of NADP+ or NADPH. For every assay a 12-point standard curve is prepared ranging from 400 nM to 0.625 nM. Media is removed and replaced with 50 μl of PBS for both assays.
For individual NADP+/NADPH measurements, 50 μl of 1% DTAB (Sigma, D5047) (cell lysis reagent) in 0.2N NaOH was added to the plates and 100 μl of lysate was split into two plates with 50 μl each from which ratio of NADP/NADPH can be calculated. 25 μl of 0.4N HCl were added to the NADP+ plates and both NADP+ and NADPH plates were heated at 60° C. for 15 minutes. The acid and heat treatment destroyed NADPH allowing individual NADP+ measurements while heating in basic conditions destroys NADP+ allowing individual NADPH measurement. After 15 minutes plates were allowed to come to room temperature and Trizma base (Sigma, T1699) was added to the NADP+ plates to neutralize the acid and HCl Trizma hydrochloride (Sigma, T2694) was added to the NADPH plates. The NADNADPH glo reagent was prepared by adding 125 μl of NAD cycling substrate, 125 μl of reductase, 125 μl of reductase substrate, 125 μl NAD cycling enzyme to a total of the 25 ml of NAD GLO reagent. 1:1 ratio of total volume of reagent was added to the individual NADP+, NADPH measurements (total 100 μl) and 50 μl were added for the total NAD/NADPH measurements. Luminescence was measured for 30-60 minutes within the linear range.
A total dead cell count was performed as described in Example 817 and only alive cells were used for analysis.

[2] = system: primary fibroblasts GM00649, GM06225, GM00612, GM00444, GM03672; experiment: MMP, ROS and ATP multiplex (ArrayScan); type: cell-based; conditions: Homo sapiens, Fibroblast; Leigh GM03672; procedure Example 838; 50 μM (table line r25); read-out: Decreased ROS by at least 10%

With `CCC(=O)CC(=O)SCCNC(=O)CCNC(=O)[C@H](O)C(C)(C)CO` [Compound 382, (2R)-2,4-dihydroxy-3,3-dimethyl-N-[2-([2-[(3-oxopentanoyl)sulfanyl]ethyl]carbamoyl)ethyl]butanamide] the activation at 10 µM [1] was no less than 10% and the inhibition at 50 µM [2] was no less than 10%.
